Measurements taken from patent publication US20050229276A1, “Method of producing cyclamen root tuber and method of proliferating cyclamen using the same” (Tokyo University of Agricultural, priority 2002, published 2005).

Legend:
[1] = system: cyclamen (cultivar: Dressy Scarlet) seedling; assay: Growth of root tubers at cut root ends of seedlings in solid media; format: in vivo
Protocol: A cyclamen (cultivar: Dressy Scarlet) seed was immersed in an ethyl alcohol aqueous solution having an ethyl alcohol concentration of 70 wt % for 10 seconds and in a sodium hypochlorite solution having an effective chlorine concentration of 1 wt % for 10 minutes to sterilize the surface of the seed. Thereafter, this seed was washed in sterilized water 3 times to remove the sodium hypochlorite from the surface of the seed. This was sown in an MS solid medium containing 30 g/l of sucrose and 6 g/l of agar under a germ-free condition and cultured at a temperature of 20° C. under weak light for 30 days to be germinated and rooted.
The end portions of the roots of the above germinated and rooted cyclamen seedling were cut off with a scalpel, and the seedling was planted in the following solid media. As the media, a large number of experimental plots were prepared by adding NAA and BA as phytohormones to the ⅓ MS medium in concentrations shown in Tables 1 to 3 and further adding 30 to 90 g/l of sucrose. 6 g/l of agar was added to all of the media which were then sterilized in an autoclave to prepare media having a pH of 7.0. 10 ml of each of the solid media was placed in a 50 ml culture test tube. The stationary culture of the seedling planted in each of the media was carried out at 20° C. under weak light for a certain number of days to grow root tubers at the end portions of its roots.

[2] = system: explants from petioles of cyclamen (species: Flamenco); assay: Culture of explants from petioles (comparative); format: cell-based; conditions: NAA 0.05 mg/l, 20 explants planted, 30 days
Protocol: For comparison, the explants from leaves and petioles of cyclamen (species: Flamenco) were cultured for 30 days by changing the contents of BA and sucrose in a basal medium prepared by adding 0.05 mg/l of NAA and 6 g/l of agar to the ⅓ MS medium and having a pH of 7.0. In all the cases, the root tubers were hardly enlarged by culture and rarely regenerated and accordingly, a clonal plant could not be obtained with high reproducibility.

[3] = sucrose 50 g/l, BA 10.0 mg/l, NAA 0.05 mg/l, 30-th day
[4] = sucrose 70 g/l, BA 0.1 mg/l, NAA 0.01 mg/l, 30-th day
[5] = sucrose 70 g/l, BA 0.1 mg/l, NAA 0.05 mg/l, 30-th day
[6] = sucrose 70 g/l, BA 1.0 mg/l, NAA 0.00 mg/l, 30-th day
[7] = sucrose 70 g/l, BA 1.0 mg/l, NAA 0.01 mg/l, 30-th day
[8] = sucrose 70 g/l, BA 1.0 mg/l, NAA 0.05 mg/l, 30-th day
[9] = sucrose 70 g/l, BA 10.0 mg/l, NAA 0.00 mg/l, 30-th day
[10] = sucrose 70 g/l, BA 10.0 mg/l, NAA 0.01 mg/l, 30-th day
[11] = sucrose 70 g/l, BA 10.0 mg/l, NAA 0.05 mg/l, 30-th day

SMILES: c1ccc(CNc2ncnc3[nH]cnc23)cc1 [BA, benzylaminopurine]
- Number of large root tubers (diameter of 1 mm or more) [1, 3]: 4
- Total number of root tubers [1, 3]: 8
- Number of large root tubers (diameter of 1 mm or more) [1, 4]: 4
- Total number of root tubers [1, 4]: 8
- Average number of root tubers (per a seedling) [1, 5]: 4.4
- Number of large root tubers (diameter of 1 mm or more) [1, 5]: 12
- Total number of root tubers [1, 5]: 14
- Average number of root tubers (per a seedling) ([1]; sucrose 70 g/l, BA 0.1 mg/l, NAA 0.05 mg/l, 50-th day): 4.4
- Number of large root tubers (diameter of 1 mm or more) [1, 6]: 11
- Total number of root tubers [1, 6]: 16
- Number of large root tubers (diameter of 1 mm or more) [1, 7]: 11
- Total number of root tubers [1, 7]: 19
- Average number of root tubers (per a seedling) [1, 8]: 0.8
- Number of large root tubers (diameter of 1 mm or more) [1, 8]: 9
- Total number of root tubers [1, 8]: 11
- Average number of root tubers (per a seedling) ([1]; sucrose 70 g/l, BA 1.0 mg/l, NAA 0.05 mg/l, 50-th day): 0.8
- Average number of root tubers (per a seedling) ([1]; sucrose 70 g/l, BA 2.0 mg/l, NAA 0.05 mg/l, 30-th day): 3.2
- Average number of root tubers (per a seedling) ([1]; sucrose 70 g/l, BA 2.0 mg/l, NAA 0.05 mg/l, 50-th day): 3.2
- Average number of root tubers (per a seedling) ([1]; sucrose 70 g/l, BA 5.0 mg/l, NAA 0.05 mg/l, 30-th day): 1.0
- Average number of root tubers (per a seedling) ([1]; sucrose 70 g/l, BA 5.0 mg/l, NAA 0.05 mg/l, 50-th day): 1.0
- Number of large root tubers (diameter of 1 mm or more) [1, 9]: 3
- Total number of root tubers [1, 9]: 3
- Number of large root tubers (diameter of 1 mm or more) [1, 10]: 3
- Total number of root tubers [1, 10]: 3
- Number of large root tubers (diameter of 1 mm or more) [1, 11]: 8
- Total number of root tubers [1, 11]: 14
- Average number of root tubers (per a seedling) ([1]; sucrose 90 g/l, BA 0.1 mg/l, NAA 0.05 mg/l, 30-th day): 2.4
- Average number of root tubers (per a seedling) ([1]; sucrose 90 g/l, BA 0.1 mg/l, NAA 0.05 mg/l, 50-th day): 2.4
- Average number of root tubers (per a seedling) ([1]; sucrose 90 g/l, BA 1.0 mg/l, NAA 0.05 mg/l, 30-th day): 1.6
- Average number of root tubers (per a seedling) ([1]; sucrose 90 g/l, BA 1.0 mg/l, NAA 0.05 mg/l, 50-th day): 1.6
- Average number of root tubers (per a seedling) ([1]; sucrose 90 g/l, BA 2.0 mg/l, NAA 0.05 mg/l, 30-th day): 1.0
- Average number of root tubers (per a seedling) ([1]; sucrose 90 g/l, BA 2.0 mg/l, NAA 0.05 mg/l, 50-th day): 1.0
- Average number of root tubers (per a seedling) ([1]; sucrose 90 g/l, BA 5.0 mg/l, NAA 0.05 mg/l, 30-th day): 0.8
- Average number of root tubers (per a seedling) ([1]; sucrose 90 g/l, BA 5.0 mg/l, NAA 0.05 mg/l, 50-th day): 0.8
- Number of enlarged explants ([2]; BA 0.05 mg/l, sucrose 30 g/m): 2
- Number of regenerate explants ([2]; BA 0.05 mg/l, sucrose 30 g/m): 0
- Number of enlarged explants ([2]; BA 0.05 mg/l, sucrose 50 g/m): 1
- Number of regenerate explants ([2]; BA 0.05 mg/l, sucrose 50 g/m): 0
- Number of enlarged explants ([2]; BA 0.05 mg/l, sucrose 70 g/m): 1
- Number of regenerate explants ([2]; BA 0.05 mg/l, sucrose 70 g/m): 0
- Number of enlarged explants ([2]; BA 0.05 mg/l, sucrose 90 g/m): 0
- Number of regenerate explants ([2]; BA 0.05 mg/l, sucrose 90 g/m): 0
- Number of enlarged explants ([2]; BA 0.1 mg/l, sucrose 30 g/m): 4
- Number of regenerate explants ([2]; BA 0.1 mg/l, sucrose 30 g/m): 4
- Number of enlarged explants ([2]; BA 0.1 mg/l, sucrose 50 g/m): 5
- Number of regenerate explants ([2]; BA 0.1 mg/l, sucrose 50 g/m): 1
- Number of enlarged explants ([2]; BA 0.1 mg/l, sucrose 70 g/m): 2
- Number of regenerate explants ([2]; BA 0.1 mg/l, sucrose 70 g/m): 0
- Number of enlarged explants ([2]; BA 0.1 mg/l, sucrose 90 g/m): 1
- Number of regenerate explants ([2]; BA 0.1 mg/l, sucrose 90 g/m): 0
- Number of enlarged explants ([2]; BA 0.5 mg/l, sucrose 30 g/m): 3
- Number of regenerate explants ([2]; BA 0.5 mg/l, sucrose 30 g/m): 1
- Number of enlarged explants ([2]; BA 0.5 mg/l, sucrose 50 g/m): 4
- Number of regenerate explants ([2]; BA 0.5 mg/l, sucrose 50 g/m): 1
- Number of enlarged explants ([2]; BA 0.5 mg/l, sucrose 70 g/m): 1
- Number of regenerate explants ([2]; BA 0.5 mg/l, sucrose 70 g/m): 0
- Number of enlarged explants ([2]; BA 0.5 mg/l, sucrose 90 g/m): 0
- Number of regenerate explants ([2]; BA 0.5 mg/l, sucrose 90 g/m): 0
- Number of enlarged explants ([2]; BA 1 mg/l, sucrose 30 g/m): 1
- Number of regenerate explants ([2]; BA 1 mg/l, sucrose 30 g/m): 0
- Number of enlarged explants ([2]; BA 1 mg/l, sucrose 50 g/m): 1
- Number of regenerate explants ([2]; BA 1 mg/l, sucrose 50 g/m): 10
- Number of enlarged explants ([2]; BA 1 mg/l, sucrose 70 g/m): 0
- Number of regenerate explants ([2]; BA 1 mg/l, sucrose 70 g/m): 0
- Number of enlarged explants ([2]; BA 1 mg/l, sucrose 90 g/m): 0
- Number of regenerate explants ([2]; BA 1 mg/l, sucrose 90 g/m): 0
